This note sets out measurements from patent publication US5508437A, “Analogs of tyrosine sulfate or tyrosine phosphate containing peptides” (Hoffmann-La Roche Inc., priority 1993, dated 1996).

For experiment [1], the target named is T1, Bovine Striatum (3H-CCK-8-(SO3 H) receptor binding) (Bos taurus, UniProt P79266).
T1 construct: tissue homogenate (striatum approximately 0.26 mg protein in 2 mL final volume); from tissue; host or cells: bovine striatum membrane homogenate
T1 sequence (P79266 1-454): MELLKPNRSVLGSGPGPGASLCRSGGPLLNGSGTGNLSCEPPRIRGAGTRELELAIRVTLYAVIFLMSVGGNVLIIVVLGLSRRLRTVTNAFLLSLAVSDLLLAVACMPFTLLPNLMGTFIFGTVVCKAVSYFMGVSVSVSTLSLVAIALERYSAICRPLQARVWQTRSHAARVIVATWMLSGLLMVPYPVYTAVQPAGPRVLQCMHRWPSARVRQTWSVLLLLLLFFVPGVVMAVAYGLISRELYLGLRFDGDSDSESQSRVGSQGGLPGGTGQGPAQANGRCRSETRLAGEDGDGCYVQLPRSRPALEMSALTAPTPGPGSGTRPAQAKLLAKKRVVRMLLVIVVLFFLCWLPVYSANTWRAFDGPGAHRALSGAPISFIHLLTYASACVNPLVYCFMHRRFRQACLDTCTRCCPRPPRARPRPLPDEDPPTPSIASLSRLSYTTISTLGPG
In words: In vitro receptor binding assay, 3H-CCK-8-(SO3H), bovine striatum homogenate. As to the method:
(§1) Frozen bovine striatum (approx. 5 g) or fresh rat pancreas (approx. 5 g) cleaned of fat and extraneous tissue were homogenized in HEPES buffer #1 (10 mM HEPES+130 mM NaCl+5 mM MgCl2, pH 7.4) using 35 parts buffer per 1 part tissue on a wet weight/volume basis (approx. 175 mL). The tissue was homogenized 2×for approx. 15 sec. at 0° C. using a Polytron homogenizer at a setting of 6. The tissue was isolated by centrifugation at 48,000× g for 10 min at 0° C. The resulting tissue pellet was resuspended in HEPES buffer #2 (10 mM HEPES+130 mM NaCl+5 mM MgCl2 +1 mg/L phenylmethanasulfonyl fluoride (PMSF)+200 mg/L Bacitracin): 1 part striatal tissue (original wet weight) per 80 parts buffer and 1 part pancreas tissue (original wet weight) per 500 to 1000 parts buffer.
(§2) Incubation was initiated by combining various concentrations of native CCK-8 or peptides of the invention with ^3 H-CCK-8-(SO3 H) (final conc.=0.15 nM) and tissue homogenate (striatum approximately 0.26 mg protein in 2 mL final volume; pancreas approximately 0.100 mg protein in 1 mL final volume). Samples were incubated for 30 min at 25° C. and the incubation terminated by pouring the mixture onto a pre-wetted Whatman GF/B filter on a Sandbeck Vacuum Filtration Manifold. The incubation tubes were washed with 2×3 mL of ice-cold HEPES Buffer #2 and the wash filtered through the GF/B filter. The filter was air dried for 10 min and then placed in a scintillation vial with 12 mL of DuPont/NEN Aquasol scintillation cocktail. The vials were shaken overnight and then counted using a liquid scintillation spectrometer. Non-specific binding was determined in the presence of 1 micromolar native CCK-8 and subtracted from all samples to determine specific binding. The concentration of peptide necessary to inhibit 50% of total specific H-CCK-8-(SO3 H) binding (IC50 value) was determined by log-probit analysis.

The target in experiment [2] is T2, rat pancreas (3H-CCK-8-(SO3 H) receptor binding) (Rattus norvegicus, UniProt P30551).
T2 construct: pancreas approximately 0.100 mg protein in 1 mL final volume; from tissue; host or cells: rat pancreas membrane homogenate
T2 sequence (P30551 1-444): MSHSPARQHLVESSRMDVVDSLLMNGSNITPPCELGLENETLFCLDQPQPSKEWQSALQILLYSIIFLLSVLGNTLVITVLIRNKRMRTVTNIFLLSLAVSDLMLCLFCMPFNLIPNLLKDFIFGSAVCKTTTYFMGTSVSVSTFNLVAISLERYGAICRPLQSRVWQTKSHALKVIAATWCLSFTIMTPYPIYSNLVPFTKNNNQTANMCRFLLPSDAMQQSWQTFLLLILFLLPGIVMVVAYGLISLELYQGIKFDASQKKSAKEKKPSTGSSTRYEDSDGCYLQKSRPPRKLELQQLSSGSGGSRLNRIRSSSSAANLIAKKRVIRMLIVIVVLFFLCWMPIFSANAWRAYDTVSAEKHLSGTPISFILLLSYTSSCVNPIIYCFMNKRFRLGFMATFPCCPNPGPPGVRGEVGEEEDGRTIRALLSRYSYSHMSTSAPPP
In words: In vitro receptor binding assay, 3H-CCK-8-(SO3H), rat pancreas homogenate. How it is done:
as §1, §2

Setting [3] is: 3H-CCK-8-(SO3H) 0.15 nM, 30 min at 25° C., bovine striatum homogenate, read-out: Bovine Striatum IC50 (concentration to inhibit 50% of specific 3H-CCK-8-(SO3H) binding).
Setting [4] is: 3H-CCK-8-(SO3H) 0.15 nM, 30 min at 25° C., rat pancreas homogenate, read-out: Rate Pancreas IC50 (concentration to inhibit 50% of specific 3H-CCK-8-(SO3H) binding).

SMILES strings stand for the structures. Like-named read-outs stand apart in the source and are kept apart here. Starred links: 1 amine or outer side, 2 acyl side, 3 side chain; linkers in the order of their positions; H or OH if unused. Positions of bridges follow the written chain, without caps; N, C: chain ends. Non-standard residues stand in square brackets, D forms with d. Residues, ends and D or L forms follow the SMILES beside them. *: point of attachment. Phe(4-tetrazol-5-yl) = N[C@@H](Cc1ccc(-c2nnn[nH]2)cc1)C(=O)O; Propanoyl(3-(4-HOOCCH2-Ph)) = O=C(O)Cc1ccc(CCC(=O)*)cc1; X15 = O=C([C@@H](Cc1ccc(-c2nn[nH]n2)cc1)N[*:1])[*:2]; X6 = O=C([C@H](Cc1ccc(Cc2nnn[nH]2)cc1)N[*:1])[*:2]; X13 = O=C(O)C(F)(F)c1ccc(CC(N[*:1])C(=O)[*:2])cc1; X3 = CCOC(=O)Cc1ccc(C[C@@H](N[*:1])C(=O)[*:2])cc1; X5 = CCOC(=O)Cc1ccc(C[C@H](N[*:1])C(=O)[*:2])cc1; X7 = O=C(C(Cc1ccc(-c2nn[nH]n2)cc1)N[*:1])[*:2]; X8 = O=C(C(Cc1ccc(Cc2nn[nH]n2)cc1)N[*:1])[*:2]; X1 = O=C(O)Cc1ccc(CC(N[*:1])C(=O)[*:2])cc1; X16 = O=C(CCc1ccc(-c2nnn[nH]2)cc1)*; X2 = O=C(CCc1ccc(Cc2nnn[nH]2)cc1)*; NMeF = CN[C@@H](Cc1ccccc1)C(=O)O; Nle = CCCC[C@H](N)C(=O)O

Take `CCCC[C@H](NC(=O)CCc1ccc(CC(=O)O)cc1)C(=O)NCC(=O)N[C@@H](Cc1c[nH]c2ccccc12)C(=O)N[C@@H](CCCC)C(=O)N[C@@H](CC(=O)O)C(=O)N(C)[C@@H](Cc1ccccc1)C(N)=O` [Example 70, Desamino-Phe(4-CH2 COOH)-Nle-Gly-Trp-Nle-Asp-N-methyl-Phe-NH2] ({Propanoyl(3-(4-HOOCCH2-Ph))}-[Nle]GW[Nle]D[NMeF]-NH2): the IC50 in experiment [1] (setting [3]) came to 200 nM; in experiment [2] (setting [4]), 330 nM.

Take `CCCC[C@H](NC(=O)CCc1ccc(Cc2nnn[nH]2)cc1)C(=O)NCC(=O)N[C@@H](Cc1c[nH]c2ccccc12)C(=O)N[C@@H](CCCC)C(=O)N[C@@H](CC(=O)O)C(=O)N(C)[C@@H](Cc1ccccc1)C(N)=O` [Example 66, Desamino-Phe(4-CH2 -tetrazole)-Nle-Gly-Trp-Nle-Asp-N-methyl-Phe-NH2] (X2-[Nle]GW[Nle]D[NMeF]-NH2): the values for the IC50 in experiment [1] (setting [3]) and in experiment [2] (setting [4]) were 160 nM and 710 nM, respectively. With `CSCC[C@H](NC(=O)CCc1ccc(CC(=O)O)cc1)C(=O)NCC(=O)N[C@@H](Cc1c[nH]c2ccccc12)C(=O)N[C@@H](CCSC)C(=O)N[C@@H](CC(=O)O)C(=O)N[C@@H](Cc1ccccc1)C(N)=O` [Example 59, Desamino Phe(4-CH2 -COOH)-Met-Gly-Trp-Met-Asp-Phe-NH2] ({Propanoyl(3-(4-HOOCCH2-Ph))}-MGWMDF-NH2), the IC50 in experiment [2] (setting [4]) was determined as 57 nM. For the compound `CSCC[C@H](NC(=O)C(Cc1ccc(-c2nn[nH]n2)cc1)NC(C)=O)C(=O)NCC(=O)N[C@@H](Cc1c[nH]c2ccccc12)C(=O)N[C@@H](CCSC)C(=O)N[C@@H](CC(=O)O)C(=O)N[C@@H](Cc1ccccc1)C(N)=O` (stereo partly drawn) [Example 53, Ac-(D,L)Phe(4-tetrazole)-Met-Gly-Trp-Met-Asp-Phe-NH2] (Ac-[X7]MGWMDF-NH2), the IC50 is 1.6 nM in experiment [1] (setting [3]) and 22 nM in experiment [2] (setting [4]). As for `CSCC[C@H](NC(=O)C(Cc1ccc(C(F)(F)C(=O)O)cc1)NC(C)=O)C(=O)NCC(=O)N[C@@H](Cc1c[nH]c2ccccc12)C(=O)N[C@@H](CCSC)C(=O)N[C@@H](CC(=O)O)C(=O)N[C@@H](Cc1ccccc1)C(N)=O` (stereo partly drawn) [Example 52, Ac-(D,L)Phe(4-CF2 COOH)-Met-Gly-Trp-Met-Asp-Phe-NH2] (Ac-[X13]MGWMDF-NH2), the IC50 was 66 nM in experiment [1] and 81 nM in experiment [2]. `CSCC[C@@H]1NC(=O)[C@H](Cc2c[nH]c3ccccc23)NC(=O)CNC(=O)[C@@H](NC(=O)C(Cc2ccc(CC(=O)O)cc2)NC(C)=O)CCCCNC(=O)C[C@@H](C(=O)N(C)[C@@H](Cc2ccccc2)C(N)=O)NC1=O` (stereo partly drawn) [Example 56, Ac-(D,L)Phe(4-CH2 COOH)-Lys-Gly-Trp-Met-Asp-N-methyl-Phe-NH2] (Ac-[X1]KGWMD[NMeF]-NH2; lactam 2-6): the IC50 was 10000 nM in experiment [1] (setting [3]) and 4650 nM in experiment [2] (setting [4]). In the same order, the values of `CCCC[C@H](NC(=O)C(Cc1ccc(Cc2nn[nH]n2)cc1)NC(C)=O)C(=O)NCC(=O)N[C@@H](Cc1c[nH]c2ccccc12)C(=O)N[C@@H](CCCC)C(=O)N[C@@H](CC(=O)O)C(=O)N(C)[C@@H](Cc1ccccc1)C(N)=O` (stereo partly drawn) [Example 63, Ac-(D,L)Phe(4-CH2 -tetrazole)-Nle-Gly-Trp-Nle-Asp-N-methyl-Phe-NH2] (Ac-[X8][Nle]GW[Nle]D[NMeF]-NH2) are 260 nM and 640 nM. For `CSCC[C@H](NC(=O)[C@H](Cc1ccc(-c2nnn[nH]2)cc1)NC(C)=O)C(=O)NCC(=O)N[C@@H](Cc1c[nH]c2ccccc12)C(=O)N[C@@H](CCSC)C(=O)N[C@@H](CC(=O)O)C(=O)N[C@@H](Cc1ccccc1)C(N)=O` [Example 55, AcPhe(4-tetrazole)MetGlyTrpMetAspPheNH2] (Ac-[Phe(4-tetrazol-5-yl)]MGWMDF-NH2), the IC50 in experiment [1] (setting [3]) was 0.51 nM. Turning to `CCCC[C@H](NC(=O)[C@H](Cc1ccc(Cc2nnn[nH]2)cc1)NC(C)=O)C(=O)NCC(=O)N[C@@H](Cc1c[nH]c2ccccc12)C(=O)N[C@@H](CCCC)C(=O)N[C@@H](CC(=O)O)C(=O)N(C)[C@@H](Cc1ccccc1)C(N)=O` [Example 65, Ac-Phe(4-CH2 -tetrazole) -Nle-Gly-Trp-Nle-Asp- N-methyl-Phe-NH2] (Ac-[X6][Nle]GW[Nle]D[NMeF]-NH2), the IC50 amounted to 69 nM in experiment [1] (setting [3]) and 260 nM in experiment [2] (setting [4]). Taken in the same sequence, the figures for `CSCC[C@H](NC(=O)C(Cc1ccc(Cc2nn[nH]n2)cc1)NC(C)=O)C(=O)NCC(=O)N[C@@H](Cc1c[nH]c2ccccc12)C(=O)N[C@@H](CCSC)C(=O)N[C@@H](CC(=O)O)C(=O)N[C@@H](Cc1ccccc1)C(N)=O` (stereo partly drawn) [Example 60, Ac-(D,L)Phe(4-CH2 tetrazole)-Met-Gly-Trp-Met-Asp-Phe-NH2] (Ac-[X8]MGWMDF-NH2) were 340 nM and 730 nM. In the same order, the values of `CCOC(=O)Cc1ccc(C[C@@H](NC(C)=O)C(=O)N[C@@H](CCSC)C(=O)NCC(=O)N[C@@H](Cc2c[nH]c3ccccc23)C(=O)N[C@@H](CCSC)C(=O)N[C@@H](CC(=O)OCC)C(=O)N[C@@H](Cc2ccccc2)C(N)=O)cc1` [Example 49, Ac-(D)Phe(4-CH2 COOC2 H5)-Met-Gly-Trp-Met-Asp(COOC2H5)-Phe-NH2] (Ac-[X3]MGWMD(OEt)F-NH2) are 10000 nM and 1000 nM.

With `CCOC(=O)Cc1ccc(C[C@H](NC(C)=O)C(=O)N[C@@H](CCSC)C(=O)NCC(=O)N[C@@H](Cc2c[nH]c3ccccc23)C(=O)N[C@@H](CCSC)C(=O)N[C@@H](CC(=O)OCC)C(=O)N[C@@H](Cc2ccccc2)C(N)=O)cc1` [Example 50, Ac-Phe(4-CH2 COOC2 H5)-Met-Gly-Trp-Met-Asp-(COOC2 H5)-Phe-NH2] (Ac-[X5]MGWMD(OEt)F-NH2), the results for the IC50 in experiment [1] (setting [3]) and in experiment [2] (setting [4]) were 10000 nM and 3600 nM, respectively. As to `CSCC[C@H](NC(=O)[C@H](Cc1ccc(OS(=O)(=O)O)cc1)NC(=O)[C@@H](N)CC(=O)O)C(=O)NCC(=O)N[C@@H](Cc1c[nH]c2ccccc12)C(=O)N[C@@H](CCSC)C(=O)N[C@@H](CC(=O)O)C(=O)N[C@@H](Cc1ccccc1)C(N)=O` [CCK-8, AspTyr(SO3 H)MetGlyTrpMetAspPheNH2, reference compound], the IC50 in experiment [1] (setting [3]) fell in the range of 1 to 3.2 nM; in experiment [2] (setting [4]), 1 to 4.6 nM. Regarding `CSCC[C@H](NC(=O)[C@H](Cc1c[nH]c2ccccc12)NC(=O)CNC(=O)[C@H](CCSC)NC(=O)[C@@H](Cc1ccc(-c2nn[nH]n2)cc1)NC(C)=O)C(=O)N[C@@H](CC(=O)O)C(=O)N[C@@H](Cc1ccccc1)C(N)=O` [Example 54, Ac-(D)Phe(4-tetrazole)-Met-Gly-Trp-Met-Asp-Phe-NH2] (Ac-[X15]MGWMDF-NH2), the IC50 in experiment [1] (setting [3]) came to 50 nM. On the same count and under the same terms, to `CSCC[C@H](NC(=O)CCc1ccc(-c2nnn[nH]2)cc1)C(=O)NCC(=O)N[C@@H](Cc1c[nH]c2ccccc12)C(=O)N[C@@H](CCSC)C(=O)N[C@@H](CC(=O)O)C(=O)N[C@@H](Cc1ccccc1)C(N)=O` [Example 67, Desamino-Phe(4-tetrazole)-Met-Gly-Trp-Met-Asp-Phe-NH2] (X16-MGWMDF-NH2) belongs 5.1 nM.
